Measurements: patent US6008219A, “Bicyclic amine derivatives and their use as anti-psychotic agents” (SmithKline Beech p.l.c., priority 1995, dated 1999)
Structures can show the parent of a compound that is named as a salt.

Target: human D3 receptor (Homo sapiens, UniProt P35462)
Experiment: Cytosensor Microphysiometer functional activity, antagonist mode against quinpirole (hD3-CHO cells)
Type: cell-based
Details: against 30 nM quinpirole, acidification rate, read-out: pKb values at the human D3 receptor (tested as antagonists) (converted)

Sequence of human D3 receptor (P35462 whole entry): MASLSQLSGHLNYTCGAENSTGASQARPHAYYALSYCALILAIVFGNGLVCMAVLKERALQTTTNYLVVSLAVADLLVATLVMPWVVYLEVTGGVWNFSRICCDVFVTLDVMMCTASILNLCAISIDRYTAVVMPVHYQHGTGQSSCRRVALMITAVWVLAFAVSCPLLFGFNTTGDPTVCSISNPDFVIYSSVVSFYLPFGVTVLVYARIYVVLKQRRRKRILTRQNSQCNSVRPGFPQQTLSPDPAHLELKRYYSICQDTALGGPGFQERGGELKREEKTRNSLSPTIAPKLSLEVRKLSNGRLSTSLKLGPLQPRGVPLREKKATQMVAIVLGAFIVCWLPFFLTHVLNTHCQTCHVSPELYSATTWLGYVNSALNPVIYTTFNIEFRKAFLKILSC

Row | Compound | Kb [nM]
1 | CCCN(CCCCNC(=O)c1ccc(-c2ccccc2)cc1)C1CCc2c(CC(=O)OCC)cccc2C1 (racemic) [Example 3bb, N-(4-(4-Phenylbenzoylamino)butyl)-6-(R,S)-propylamino-5,6,7,8-tetrahydronaphthalene-1-acetic acid, ethyl ester, hydrochloride] | 0.0316 to 10
2 | CCCN(CCCCNC(=O)c1ccc(-c2ccccc2)cc1)C1CCc2cc(CC(=O)OCC)ccc2C1 (racemic) [Example 3cc, N-(4-(4-Phenylbenzoylamino)butyl)-6-(R,S)-propylamino-5,6,7,8-tetrahydronaphthalene-2-acetic acid, ethyl ester, hydrochloride] | 0.0316 to 10
3 | CCCN(CCCCNC(=O)c1ccc(-c2ccccc2)cc1)C1CCc2ccc(CC(=O)OCC)cc2C1 (racemic) [Example 3dd, N-(4-(4-Phenylbenzoylamino)butyl)-7-(R,S)-propylamino-5,6,7,8-tetrahydronaphthalene-2-acetic acid, ethyl ester, hydrochloride] | 0.0316 to 10
4 | CCCN(CCCCNC(=O)c1ccc(-c2ccccc2)cc1)C1CCc2c(cccc2OS(=O)(=O)C(F)(F)F)C1 (racemic) [Example 15, N-(4-(4-Phenylbenzoylamino)butyl)-2-(R,S)-propylamino-5-trifluoromethanesulfonyloxy-1,2,3,4-tetrahydronaphthalene, hydrochloride] | 0.0316 to 10
5 | CCCN(CCCCNC(=O)c1ccc(-c2ccccc2)cc1)C1CCc2c(cccc2OS(C)(=O)=O)C1 (racemic) [Example 17, 5-Methanesulfonyloxy-N-(4-(4-phenylbenzoylamino)butyl)-2-(R,S)-propylamino-1,2,3,4-tetrahydronaphthalene, hydrochloride] | 0.0316 to 10

Next, values leading:

Row | Kb [nM] | Compound
6 | 0.0316 to 10 | CCCN(CCCCNC(=O)c1ccc(-c2ccccc2)cc1)C1CCc2c(Cl)cccc2C1 (racemic) [Example 2k, 5-Chloro-N-(4-(4-phenylbenzoylamino)butyl)-2-(R,S)-propylamino-1,2,3,4-tetrahydronaphthalene, hydrochloride]
7 | 0.0316 to 10 | CCCN(CCCCNC(=O)c1ccc(-c2ccccc2)cc1)C1CCc2ccc(Cl)cc2C1 (racemic) [Example 2m, 7-Chloro-N-(4-(4-phenylbenzoylamino)butyl)-2-(R,S)-propylamino-1,2,3,4-tetrahydronaphthalene, hydrochloride]
8 | 0.0316 to 10 | CCCN(CCCCNC(=O)c1ccc(-c2ccccc2)cc1)C1CCc2cc(OC(F)(F)F)ccc2C1 (racemic) [Example 2x, N-(4-(4-Phenylbenzoylamino)butyl)-2-(R,S)-propylamino-6-trifluoromethoxy-1,2,3,4-tetrahydronaphthalene, hydrochloride]
9 | 0.0316 to 10 | CCCN(CCCCNC(=O)c1ccc(-c2ccccc2)cc1)C1CCc2ccccc2C1 (racemic) [Example 10f, N-(4-(4-phenylbenzoylamino)butyl)-2-(R,S)-propylamino-1,2,3,4-tetrahydronaphthalene, hydrochloride]
10 | 0.0316 to 10 | CCCN(CCCCNC(=O)c1ccc(-c2ccccc2)cc1)C1Cc2ccccc2C1 [Example 2p, N-(4-(4-Phenylbenzoylamino)butyl)-2-propylaminoindane, hydrochloride]
